# Assay results published in US20260258048A1, “LACTAM-CONTAINING IMIDAZOPYRIDAZINE IL-17 INHIBITOR COMPOUNDS” (Janssen Pharmaceutica NV, priority 2023, published 2026).
# How the values were obtained:
# [1] = target: IL-17A(FLAG-tagged): IL-17RA(His-tagged) (Homo sapiens, UniProt Q16552, K93Q); assay: IL-17A(FLAG-tagged): IL-17RA(His-tagged) binding disruption Eu-HTRF assay; conditions: class of the average IC50 where tested more than once
# Excerpt: IL-17A(FLAG-tagged): IL-17RA(His-tagged) binding disruption Eu-HTRF assay An antibody directed against the FLAG tag of IL-17A (SEQ ID NO: 1) is labeled with the HTRF donor chromophore (Europium-cryptate). IL-17A is present as a dimer that is “locked into” this quaternary structure due to the formation of loop-spanning intramolecular disulfide bridges. The construct of IL-17RA used in the assay excludes the […] portion of the receptor and is fused to a C-terminal 10×His tag (SEQ ID NO:2). An antibody directed against the His tag of the IL-17RA chimera is labeled with the HTRF acceptor chromophore (“D2”). The fluorescence-resonance energy transfer (FRET) depends on the vicinity of the donor chromophore to the acceptor, and interruption of the binding between the IL-17A and IL-17RA causes the reduction/loss of FRET. Therefore, this assay allows to evaluate the compound effect on the binding IL-17A and IL-17RA by monitoring the fluorescence intensity of donor vs acceptor. The assay is run as described below.
# 40 nl of 2-fold serial diluted compound solution for total 22 dilution points is added into each well of a 1536-well, white, low-volume, non-binding plate (Greiner #782904), then 2 μl of FLAG tagged IL-17A at 2× final concentration (1 μM) in solution of PBS+0.01% Triton-X100 is added to each well. The assay plate is briefly centrifuged then incubated for 1 h at rt. A mixed solution is prepared containing 2×5 nM 10HIS×IL-17RA, 2×2.5 nM Eu-anti-FLAG (CISBIO), 2×5 nM D2-anti-HIS (CISBIO) in PBS+0.01% Triton-X100+200 mM Potassium Fluoride (Sigma 60238) and 2 μl of mix is added to each well of the assay plate. The plate is briefly centrifuged then incubated for 2 h at rt. The HTRF intensities at the wavelength of donor (615 nm) and acceptor (665 nm) are measured using BMG Pherastar. The ratio between intensities at two wavelengths is calculated and plotted against the compound concentration and the data is fitted to a one-site competition model to yield IC50 of the compound.
# [2] = system: IL-17A-induced G-CSF production in human normal keratinocyte (NHK); assay: NHK assay: IL-17A-induced G-CSF production in normal human keratinocytes; format: cell-based; conditions: 24 h, IL-17A 5 ng/mL, class of the average IC50 where tested more than once
# Protocol: IL-17A acts directly on keratinocytes through binding to dimeric receptor IL-17RA/RC and drives the production of a number of inflammatory mediators known to be elevated in psoriasis lesional tissue. IL-17A small molecule inhibitors that block the IL-17A to interact with IL-17R would inhibit the IL-17A signaling in its targeted cells such as keratinocytes. The compound functional activity is evaluated for its impact on IL-17A-induced G-CSF production in human normal keratinocyte (NHK).
# Adult normal human keratinocytes are cultured in keratinocyte growth medium (Lonza) in a flask till reaching ~90% confluence, then cells are transferred to a 384-well plate at density of 3000-4000 cell/well. Recombinant human IL-17A (Gibco PHC9174) is pre-incubated with titrated compound or DMSO for 1 h at rt then added to the cell culture plate. The final concentration of IL-17A is 5 ng/mL and DMSO is 0.2%, in the culture containing 5% FBS. Cells are cultured/treated for 24 h at 37° C. Supernatants are collected and G-CSF production is measured through HTRF technology using Human G-CSF Kit (CisBio). G-CSF concentration was extrapolated from the standard curve and IC50 is determined using GraphPad Prism. Cell viability is also evaluated using CellTiter-Glo kit (Promega) and effect of compound on cell viability is compared to DMSO control.
# UniProt Q16552, sequence (Q16552 with tags, fused parts or gaps K93Q): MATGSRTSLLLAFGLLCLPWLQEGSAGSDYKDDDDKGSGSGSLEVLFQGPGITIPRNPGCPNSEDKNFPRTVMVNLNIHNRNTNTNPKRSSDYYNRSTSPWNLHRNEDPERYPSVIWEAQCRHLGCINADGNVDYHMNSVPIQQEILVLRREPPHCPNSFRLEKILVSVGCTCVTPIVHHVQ
SMILES,IC50 [1],"IC50 ([2]; Homo sapiens, Keratinocyte)",IC50 [2]
"O=C(N[C@H](c1cn2ncc([C@H]3C[C@@]34C[C@@H](C(F)(F)F)NC4=O)cc2n1)C1CCC(F)(F)CC1)c1nonc1C1CC1 (relative stereo) [Example 41, 4-Cyclopropyl-N—((S)-(4,4-difluorocyclohexyl)(7-((1R*,3R*,6S)-4-oxo-6-(trifluoromethyl)-5-azaspiro[2.4]heptan-1-yl)imidazo[1,2-b]pyridazin-2-yl)methyl)-1,2,5-oxadiazole-3-carboxamide]",> 4 µM,> 4 µM,
"CC[C@H]1C[C@@H](Cc2cnn3cc([C@@H](NC(=O)c4nonc4C4CC4)C4CCC(F)(F)CC4)nc3c2)C(=O)N1 (relative stereo) [Example 92, 4-Cyclopropyl-N—[(S)-(4,4-difluorocyclohexyl)-[7-[[(3R*,5S*)-5-ethyl-2-oxo-pyrrolidin-3-yl]methyl]imidazo[1,2-b]pyridazin-2-yl]methyl]-1,2,5-oxadiazole-3-carboxamide]",> 4 µM,,
"O=C(N[C@H](c1cn2ncc(C[C@@H]3C(=O)NC[C@H]3C(F)(F)F)cc2n1)C1CCC(F)(F)CC1)c1nonc1C1CC1 (relative stereo) [Example 100, 4-Cyclopropyl-N—[(S)-(4,4-difluorocyclohexyl)-[7-[[(3S*,4S*)-2-oxo-4-(trifluoromethyl)pyrrolidin-3-yl]methyl]imidazo[1,2-b]pyridazin-2-yl]methyl]-1,2,5-oxadiazole-3-carboxamide]",0.4 to 4 µM,> 4 µM,
O=C(N[C@H](c1cn2ncc([C@@H](O)[C@H]3C[C@@H](C(F)(F)F)NC3=O)cc2n1)C1CCC(F)(F)CC1)c1nonc1C1CC1 [Example 74],< 0.4 µM,< 0.4 µM,
"CC1(C)CNC(=O)C1Cc1cnn2cc([C@@H](NC(=O)c3nonc3C3CC3)C3CCC(F)(F)CC3)nc2c1 (single isomer, unassigned) [Example 16, 4-Cyclopropyl-N—[(S)-(4,4-difluorocyclohexyl)-[7-[[(3S*)-4,4-dimethyl-2-oxo-pyrrolidin-3-yl]methyl]imidazo[1,2-b]pyridazin-2-yl]methyl]-1,2,5-oxadiazole-3-carboxamide]",0.4 to 4 µM,,> 4 µM
"O=C(N[C@H](c1cn2ncc([C@H](O)[C@@H]3C[C@H](C(F)(F)F)NC3=O)cc2n1)C1CCC(F)(F)CC1)c1nonc1C1CC1 (relative stereo) [Example 64, 4-Cyclopropyl-N—((S)-(4,4-difluorocyclohexyl)(7-((R*)-hydroxy((3S*,5R*)-2-oxo-5-(trifluoromethyl)pyrrolidin-3-yl)methyl)imidazo[1,2-b]pyridazin-2-yl)methyl)-1,2,5-oxadiazole-3-carboxamide]",0.4 to 4 µM,< 0.4 µM,
"CC[C@@H](c1cnn2cc([C@@H](NC(=O)c3nonc3C3CC3)C3CCC(F)(F)CC3)nc2c1)[C@@H]1C[C@@H](C(F)(F)F)NC1=O (relative stereo) [Example 20, 4-Cyclopropyl-N—((S)-(4,4-difluorocyclohexyl)(7-((R*)-1-((3S*,5S)-2-oxo-5-(trifluoromethyl)pyrrolidin-3-yl)propyl)imidazo[1,2-b]pyridazin-2-yl)methyl)-1,2,5-oxadiazole-3-carboxamide]",0.4 to 4 µM,0.4 to 4 µM,
"C[C@H](c1cnn2cc([C@@H](NC(=O)c3nonc3C3CC3)C3CCC(F)(F)CC3)nc2c1)[C@H]1C[C@@H](C(F)(F)F)NC1=O (relative stereo) [Example 79, 4-Cyclopropyl-N—((S)-(4,4-difluorocyclohexyl)(7-((S*)—1-((3R*,5S)-2-oxo-5-(trifluoromethyl)pyrrolidin-3-yl)ethyl)imidazo[1,2-b]pyridazin-2-yl)methyl)-1,2,5-oxadiazole-3-carboxamide]",< 0.4 µM,< 0.4 µM,
"O=C(N[C@H](c1cn2ncc(CC3CC(F)(F)CNC3=O)cc2n1)C1CCC(F)(F)CC1)c1nonc1C1CC1 (single isomer, unassigned) [Example 2, 4-Cyclopropyl-N—((S)-(7-(((S*)-5,5-difluoro-2-oxopiperidin-3-yl)methyl)imidazo[1,2-b]pyridazin-2-yl)(4,4-difluorocyclohexyl)methyl)-1,2,5-oxadiazole-3-carboxamide]",0.4 to 4 µM,,> 4 µM
"CC(C)[C@@H]1C[C@@H](Cc2cnn3cc([C@@H](NC(=O)c4nonc4C4CC4)C4CCC(F)(F)CC4)nc3c2)C(=O)N1 (relative stereo) [Example 95, 4-Cyclopropyl-N—[(S)-(4,4-difluorocyclohexyl)-[7-[[(3R*,5S*)-5-isopropyl-2-oxo-pyrrolidin-3-yl]methyl]imidazo[1,2-b]pyridazin-2-yl]methyl]-1,2,5-oxadiazole-3-carboxamide]",0.4 to 4 µM,> 4 µM,
"CC[C@H]1C[C@H](Cc2cnn3cc([C@@H](NC(=O)c4nonc4C4CC4)C4CCC(F)(F)CC4)nc3c2)C(=O)N1 (relative stereo) [Example 91, 4-Cyclopropyl-N—[(S)-(4,4-difluorocyclohexyl)-[7-[[(3S*,5S*)-5-ethyl-2-oxo-pyrrolidin-3-yl]methyl]imidazo[1,2-b]pyridazin-2-yl]methyl]-1,2,5-oxadiazole-3-carboxamide]",0.4 to 4 µM,,
"O=C(N[C@H](c1cn2ncc(CC3CCCNC3=O)cc2n1)C1CCC(F)(F)CC1)c1nonc1C1CC1 (single isomer, unassigned) [Example 24, 4-Cyclopropyl-N—[(S)-(4,4-difluorocyclohexyl)-[7-[[(3S*)-2-oxo-3-piperidyl]methyl]imidazo[1,2-b]pyridazin-2-yl]methyl]-1,2,5-oxadiazole-3-carboxamide]",0.4 to 4 µM,,
"O=C(N[C@H](c1cn2ncc(CC3CCCNC3=O)cc2n1)C1CCC(F)(F)CC1)c1nonc1C1CC1 (single isomer, unassigned) [Example 23, 4-Cyclopropyl-N—[(S)-(4,4-difluorocyclohexyl)-[7-[[(3R*)-2-oxo-3-piperidyl]methyl]imidazo[1,2-b]pyridazin-2-yl]methyl]-1,2,5-oxadiazole-3-carboxamide]",0.4 to 4 µM,,
"O=C(N[C@H](c1cn2ncc(C[C@H]3CC[C@H](C(F)(F)F)NC3=O)cc2n1)C1CCC(F)(F)CC1)c1nonc1C1CC1 (relative stereo) [Example 29, 4-Cyclopropyl-N—((S)-(4,4-difluorocyclohexyl)(7-(((3R*,6R*)-2-oxo-6-(trifluoromethyl)piperidin-3-yl)methyl)imidazo[1,2-b]pyridazin-2-yl)methyl)-1,2,5-oxadiazole-3-carboxamide]",,0.4 to 4 µM,
"O=C(N[C@H](c1cn2ncc(C[C@H]3C(=O)NCC[C@@H]3C(F)(F)F)cc2n1)C1CCC(F)(F)CC1)c1nonc1C1CC1 (relative stereo) [Example 4, 4-Cyclopropyl-N—[(S)-(4,4-difluorocyclohexyl)-[7-[[(3R*,4S*)-2-oxo-4-(trifluoromethyl)-3-piperidyl]methyl]imidazo[1,2-b]pyridazin-2-yl]methyl]-1,2,5-oxadiazole-3-carboxamide]",,0.4 to 4 µM,
"CC[C@@H]1C[C@@H](Cc2cnn3cc([C@@H](NC(=O)c4nonc4C4CC4)C4CCC(F)(F)CC4)nc3c2)C(=O)N1 (relative stereo) [Example 90, 4-Cyclopropyl-N—[(S)-(4,4-difluorocyclohexyl)-[7-[[(3R*,5R*)-5-ethyl-2-oxo-pyrrolidin-3-yl]methyl]imidazo[1,2-b]pyridazin-2-yl]methyl]-1,2,5-oxadiazole-3-carboxamide]",,< 0.4 µM,
